# Source: US10238676B2, “Application of ginsenoside RG3 in preparing medicine for preventing and/or treating dementia, and medicine for treating dementia” (priority 2013, dated 2019)
# What was measured:
# [1] = tested on: rat model with Alzheimer's disease; assay: Channel-type water maze test, learning and memory of rat model with Alzheimer's disease; type: in vivo, Wistar rats; conditions: AD model rats
# Experimental: Water maze pre-training is performed after feeding for 1 week under the stable condition of laboratory, 60 rats with similar body weights and good flexibility are selected, and are divided into 6 groups randomly, a normal control group, a sham operated control group, a model control group, and high-dose, medium-dose and low-dose ginsenoside Rg3 groups (10, 5, 2.5 mg/kg/d), wherein each group has 10 animals.
# The molding method applying intraperitoneal injection of 0.96% D-galactose prepared by normal saline is applied to rats to make model rat, 5 mL/kg, once daily for 6 continuous weeks. The rat of sham operated control group are injected with equivalent normal saline. The rat groups of the model control group and high-dose, medium-dose and low-dose ginsenoside Rg3 groups are intracranially injected with IBO starting from the 43th day, and each side is slowly injected with 1 μL of IBO, the sham operated group's rats are injected with equivalent normal saline in the same encephalic region (for 4 continuous weeks). The normal control group's rat are without any processing and eat and drink normally. The rats of high-dose, medium-dose and low-dose ginsenoside Rg3 groups are administered intragastrically with ginsenoside Rg3 oral emulsion daily while molding, and are administered for 4 w (weeks) after molding.
# The changes of animal behavioristics in each group are tested by channel-type water maze test, and the learning and memory abilities of rats are evaluated by number of entering blind ends and the time needed to reach the terminal. All test results are expressed in mean±standard deviation, and the intergroup difference is subjected to variance analysis by adopting SPSS10.0 statistical package.
# [2] = tested on: patients with Alzheimer's disease; assay: Revised Hasegawa dementia scale (HDS-R) scoring of patients with Alzheimer's disease; type: in vivo, human
# Experimental: Both groups take medicine for 12 continuous weeks. 2 ml of cerebrospinal fluid is collected by lumbar puncture, and is stored at −80° C., the β-amyloid protein (Aβ) content is determined by using enzyme-linked immunosorbent assay (ELISA). A revised Hasegawa dementia scale (HDS-R) is used to score, and the scores before and after treatment are compared, increasing in scores means validness, and unchanging or decreasing in scores means invalidness. The enumeration data adopts χ^2 test, the comparison of measurement data adopts t-test, all data is processed by adopting SPSS12.0 statistical software.
# Analysis on the clinical therapeutic effect of the two groups.
# [3] = tested on: patients with mild or moderate Alzheimer's disease; assay: Placebo-controlled clinical research, MMSE/CDR/ADL, mild or moderate Alzheimer's disease (Test Example 4); type: in vivo, human
# Description: 89 patients with mild or moderate Alzheimer's disease are divided into two groups randomly, one of which take ginsenoside Rg3, and the other placebos. There are 46 patients in the group taking Rg3, with 21 male and 25 female, aged from 58 to 87 (72.6±6.8), scoring from 10 to 24 (17.8±2.3) points in the mini-mental state examination (MMSE); there are 43 patients taking placebos, with 19 male and 24 female aged from 57 to 88 (71.8±8.2), scoring from 10 to 24 (18.2±2.7) points in MMSE. There are no obvious differences between the ginsenoside Rg3 group and the placebo group with respect to gender, age and MMSE scores. The patents in the group taking ginsenoside Rg3 use the ginsenoside Rg3 naristillae once a day for 12 continuous weeks, with 10 mg/ml for each time.
# For the patients taking placebos, except that what is used for intranasal administration are placebos, the rest is conducted according to the same administration method as that adopted by those taking ginsenoside Rg3.
# The ginsenoside Rg3 naristillae has a concentration of 10 mg/ml, and colors, characters, tastes and dosages of the placebos are the same as those of the ginsenoside Rg3 naristillae. The ginsenoside Rg3 naristillae and the placebos are applied once a day for 12 continuous weeks. Examination is conducted once every four weeks before and after medication, and the examination method is as follows:
# (1) MMSE Screening of AD: examining patients' cognitive functions (orientation, memory, computational power, language competence, ability in applying visual-spatial segment etc.; (2) Examining patents' dementia degrees using the clinical dementia rating (CDR); (3) Examining patents' activities of daily living using the activity of daily living scale (ADL).
# SPSS statistical software is adopted for examination results. T-test is adopted before and after treatment, and it is also adopted for the ginsenoside Rg3 naristillae group and the placebo control group. For scoring results of MMSE, CDR and ADL of patients with AD before treatment, see table 5
# [4] = cited from earlier work
# [5] = Rg3 oral emulsion (embodiment 17) intragastric, 10 mg/kg/d
# [6] = Rg3 oral emulsion intragastric, 2.5 mg/kg/d
# [7] = Rg3 oral emulsion intragastric, 5 mg/kg/d
# [8] = of 18 patients per group, 12 weeks
# [9] = 46 AD patients, Rg3 naristillae 10 mg/ml intranasal once a day
smiles,measurement,setting,value
"CC(C)=CCC[C@](C)(O)[C@H]1CC[C@]2(C)[C@@H]1[C@H](O)C[C@@H]1[C@@]3(C)CC[C@H](O[C@@H]4O[C@H](CO)[C@@H](O)[C@H](O)[C@H]4O[C@@H]4O[C@H](CO)[C@@H](O)[C@H](O)[C@H]4O)C(C)(C)[C@@H]3CC[C@]12C [Ginsenoside Rg3, 20(R)-ginsenoside Rg3]",Error times,[1]; [5],1.01 ± 0.41 time
same,Swimming out time,[1]; [5],12.26 ± 3.26 s
same,Error times,[1]; [6],1.82 ± 0.43 time
same,Swimming out time,[1]; [6],32.26 ± 3.21 s
same,Error times,[1]; [7],1.10 ± 0.44 time
same,Swimming out time,[1]; [7],19.26 ± 3.23 s
same,effective rate (patients increased in HDS-R scores),"[2]; 18 AD patients per group, Rg3 oral liquid 10 mg/d or donepezil 5 mg/d, 12 weeks",77.8%
same,"Scores of clinical symptom (HDS-R), post treatment","[2]; AD inpatients, n = 18, Rg3 oral liquid 10 mg/d or donepezil 5 mg/d orally, 12 weeks",18.7 ± 8.1^#Δ
same,"Scores of clinical symptom (HDS-R), before treatment","[2]; AD inpatients, n = 18 per group, baseline",12.3 ± 5.2
same,number of patients constant in scores,[2]; [8],3
same,number of patients decreased in scores,[2]; [8],1
same,number of patients increased in scores of clinical symptom,[2]; [8],14
same,ADL score before treatment,"[3]; 46 AD patients, baseline",47.2 ± 7.9 points
same,CDR score before treatment,"[3]; 46 AD patients, baseline",1.9 ± 0.3 points
same,MMSE score before treatment,"[3]; 46 AD patients, baseline",17.8 ± 2.3 points
same,ADL score after treatment for 12 weeks,[3]; [9],40.5 ± 7.6 points
same,CDR score after treatment for 12 weeks,[3]; [9],1.2 ± 0.2 points
same,MMSE score after treatment for 12 weeks,"[3]; 46 AD patients, Rg3 naristillae (embodiment 29) 10 mg/ml intranasal once a day",24.1 ± 2.0 points
same,decrease of ADL score after treatment compared with before treatment,"[3]; Test Example 4, Rg3 naristillae, 12 weeks",7.1 points
same,lipid solubility and water solubility,[4],relatively poor
